Measurements taken from PubChem BioAssay AID298 (DTP/NCI, 2004).
“And” between values parts separate entries of the source, which are not always exact repeats. Identical values can stand only once. Inconclusive results are not listed.

System: MX-1 breast xenograft, intrarenal, nude mice, tumor weight
Test: NCI In Vivo Anticancer Drug Screen. Data for tumor model Human Mammary Carcinoma MX-1 Xenograft (intrarenal inoculation) in NU/NU BALB/C (nude) mice
Conditions: endpoint: mean tumor weight change, higher = larger tumour
Outline: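 Compounds were given to mice carrying transplanted tumors, and tumor size or survival was measured. Each value is the treated-group measurement (T) divided by the vehicle-treated control-group measurement (C).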

[1] = dose: 25.0 mg/kg/injection, schedule: Q04DX003 (ip), vehicle: saline with Tween-80
[2] = dose: 50.0 mg/kg/injection, schedule: Q04DX003 (ip), vehicle: saline with Tween-80
[3] = dose: 100.0 mg/kg/injection, schedule: Q04DX003 (ip), vehicle: saline with Tween-80

SMILES: COC(=O)NC1C(C)OC(OC2C/C=C(/C)C3C=CC4C(OC5CC(OC6CC(OC7CC(O)C(O)C(C)O7)C(OC7CC(O)C(OC)C(C)O7)C(C)O6)C(O)C(C)O5)C(C)CC(C)C4C3(C)/C(O)=C3\C(=O)OC4(CC(C)C(CO)=CC4/C=C\2C)C3=O)CC1(C)[N+](=O)[O-] (stereo not drawn)
- T/C (dose: 75.0 mg/kg/injection, schedule: Q04DX003 (ip), vehicle: water): 198 % of control
- T/C (dose: 150.0 mg/kg/injection, schedule: Q04DX003 (ip), vehicle: water): 120 % of control
- T/C (dose: 300.0 mg/kg/injection, schedule: Q04DX003 (ip), vehicle: water): 73 % of control

SMILES: COc1cc(C2CC(C)(O)Oc3cc4c(cc32)OCO4)cc(OC)c1OC (stereo not drawn)
- T/C [1]: 86 % of control
- T/C [2]: 75 % of control
- T/C [3]: 73 % of control and 74 % of control
- T/C (dose: 200.0 mg/kg/injection, schedule: Q04DX003 (ip), vehicle: saline with Tween-80): 46 % of control

SMILES: Cc1nn(CCO)c(C)c1N=[N+]([O-])c1c(C)nn(CCO)c1C
- T/C (dose: 300.0 mg/kg/injection, schedule: Q04DX003 (sc), vehicle: Klucel (hydroxypropylcellulose) (HPC)): 109 % of control
- T/C (dose: 600.0 mg/kg/injection, schedule: Q04DX003 (sc), vehicle: Klucel (hydroxypropylcellulose) (HPC)): 85 % of control
- T/C (dose: 1200.0 mg/kg/injection, schedule: Q04DX003 (sc), vehicle: Klucel (hydroxypropylcellulose) (HPC)): 102 % of control
- T/C (dose: 2400.0 mg/kg/injection, schedule: Q04DX003 (sc), vehicle: Klucel (hydroxypropylcellulose) (HPC)): 90 % of control

SMILES: COC1=C(OC)C(=O)C(SC/C=C(\C)CCCC(C)CCCC(C)CCCC(C)C)=CC1=O (stereo not drawn)
- T/C (dose: 300.0 mg/kg/injection, schedule: Q04DX003 (ip), vehicle: saline with Tween-80): 220 % of control
- T/C (dose: 600.0 mg/kg/injection, schedule: Q04DX003 (ip), vehicle: saline with Tween-80): 61 % of control
- T/C (dose: 1200.0 mg/kg/injection, schedule: Q04DX003 (ip), vehicle: saline with Tween-80): 75 % of control

SMILES: CC1CN1P1(N2CC2C)=NP(N2CC2C)(N2CC2C)=NP(N2CC2C)(N2CC2C)=N1 (stereo not drawn)
- T/C (dose: 75.0 mg/kg/injection, schedule: Q04DX003 (sc), vehicle: saline): 51 % of control
- T/C (dose: 150.0 mg/kg/injection, schedule: Q04DX003 (sc), vehicle: saline): 3 % of control

SMILES: CN=C(N)c1ccc(N=C(N)c2ccc(C(N)=Nc3ccc(C(N)=NC)cc3)cc2)cc1
- T/C (dose: 15.0 mg/kg/injection, schedule: Q04DX003 (ip), vehicle: saline): 96 % of control
- T/C (dose: 30.0 mg/kg/injection, schedule: Q04DX003 (ip), vehicle: saline): 118 % of control

SMILES: CC[PH+](CC)CC[S-].CC[PH+](CC)CC[S-].[Au+].[Au+]
- T/C (dose: 40.0 mg/kg/injection, schedule: Q04DX003 (sc), vehicle: Klucel (hydroxypropylcellulose) (HPC)): 87 % of control
- T/C (dose: 80.0 mg/kg/injection, schedule: Q04DX003 (sc), vehicle: Klucel (hydroxypropylcellulose) (HPC)): 69 % of control
- T/C (dose: 160.0 mg/kg/injection, schedule: Q04DX003 (sc), vehicle: Klucel (hydroxypropylcellulose) (HPC)): 55 % of control
- T/C (dose: 320.0 mg/kg/injection, schedule: Q04DX003 (sc), vehicle: Klucel (hydroxypropylcellulose) (HPC)): 80 % of control

SMILES: COc1ccc(C(C)c2cc3c(cc2OC)OCO3)cc1 (stereo not drawn)
- T/C (dose: 12.5 mg/kg/injection, schedule: Q04DX003 (ip), vehicle: saline with Tween-80): 88 % of control
- T/C [1]: 79 % of control
- T/C [2]: 83 % of control
- T/C [3]: 53 % of control

SMILES: CC(C)N1C(=O)N(Cl)C2C1N(Cl)C(=O)N2Cl (stereo not drawn)
- T/C [1]: 113 % of control

SMILES: O=C(NC(Cc1ccc(I)cc1)C(=O)O)c1ccc(Br)cc1 (stereo not drawn)
- T/C (dose: 37.5 mg/kg/injection, schedule: Q04DX003 (ip), vehicle: sodium bicarbonate): 92 % of control
- T/C (dose: 150.0 mg/kg/injection, schedule: Q04DX003 (ip), vehicle: sodium bicarbonate): 87 % of control and 112 % of control
- T/C (dose: 300.0 mg/kg/injection, schedule: Q04DX003 (ip), vehicle: sodium bicarbonate): 78 % of control

SMILES: Nc1ccc(C(=O)Nc2ccccc2N)cc1
- T/C (dose: 25.0 mg/kg/injection, schedule: Q01DX010 (ip), vehicle: saline with Tween-80): 91 % of control
- T/C (dose: 50.0 mg/kg/injection, schedule: Q01DX010 (ip), vehicle: saline with Tween-80): 87 % of control
- T/C (dose: 100.0 mg/kg/injection, schedule: Q01DX010 (ip), vehicle: saline with Tween-80): 84 % of control
- T/C (dose: 200.0 mg/kg/injection, schedule: Q01DX010 (ip), vehicle: saline with Tween-80): 36 % of control

SMILES: CN1CCN(c2ccc([N+](=O)[O-])c3no[n+]([O-])c23)CC1
- T/C (dose: 37.5 mg/kg/injection, schedule: Q04DX003 (sc), vehicle: saline with Tween-80): 117 % of control
- T/C (dose: 75.0 mg/kg/injection, schedule: Q04DX003 (sc), vehicle: saline with Tween-80): 83 % of control
- T/C (dose: 150.0 mg/kg/injection, schedule: Q04DX003 (sc), vehicle: saline with Tween-80): 72 % of control

SMILES: OCC(O)C(O)C(O)C(O)CO (stereo not drawn)
- T/C (dose: 75.0 mg/kg/injection, schedule: Q04DX003 (ip), vehicle: saline): 75 % of control
- T/C (dose: 150.0 mg/kg/injection, schedule: Q04DX003 (ip), vehicle: saline): 103 % of control
- T/C (dose: 300.0 mg/kg/injection, schedule: Q04DX003 (ip), vehicle: saline): 91 % of control
- T/C (dose: 600.0 mg/kg/injection, schedule: Q04DX003 (ip), vehicle: saline): 94 % of control
- T/C (dose: 1200.0 mg/kg/injection, schedule: Q04DX003 (ip), vehicle: saline): 70 % of control

SMILES: Cc1ccc(S(=O)(=O)NC(=O)OC23COCN2COC3)cc1
- T/C (dose: 200.0 mg/kg/injection, schedule: Q04DX003 (sc), vehicle: saline with Tween-80): 123 % of control
- T/C (dose: 800.0 mg/kg/injection, schedule: Q04DX003 (sc), vehicle: saline with Tween-80): 102 % of control
- T/C (dose: 1600.0 mg/kg/injection, schedule: Q04DX003 (sc), vehicle: saline with Tween-80): 107 % of control

SMILES: Nc1nc([Se]c2nc(N)nc3c2ncn3C2OC(CO)C(O)C2O)c2ncn(C3OC(CO)C(O)C3O)c2n1 (stereo not drawn)
- T/C (dose: 100.0 mg/kg/injection, schedule: Q04DX003 (ip), vehicle: distilled water + Tween-80): 77 % of control
- T/C (dose: 200.0 mg/kg/injection, schedule: Q04DX003 (ip), vehicle: distilled water + Tween-80): 78 % of control
- T/C (dose: 400.0 mg/kg/injection, schedule: Q04DX003 (ip), vehicle: distilled water + Tween-80): 34 % of control

SMILES: C/C=C(\C)c1cc(=O)c2c(C)cc3c(c2o1)C(=O)c1c(O)c(C2CC(C)(N(C)C)C(OC(C)=O)C(C)O2)cc(C2CC(N(C)C)C(O)C(C)O2)c1C3=O (stereo not drawn)
- T/C (dose: 2.5 mg/kg/injection, schedule: Q04DX003 (sc), vehicle: saline): 91 % of control
- T/C (dose: 40.0 mg/kg/injection, schedule: Q04DX003 (sc), vehicle: saline): 39 % of control and 43 % of control

SMILES: NC(=S)N/N=C/c1cc(=O)c2cc(Cl)ccc2o1
- T/C (dose: 150.0 mg/kg/injection, schedule: Q04DX003 (ip), vehicle: other): 117 % of control
- T/C (dose: 300.0 mg/kg/injection, schedule: Q04DX003 (ip), vehicle: other): 103 % of control
- T/C (dose: 600.0 mg/kg/injection, schedule: Q04DX003 (ip), vehicle: other): 117 % of control
- T/C (dose: 1200.0 mg/kg/injection, schedule: Q04DX003 (ip), vehicle: other): 106 % of control

SMILES: CC(=O)O[C@H]1C(=O)[C@@]2(C)C(C(OC(=O)c3ccccc3)[C@]3(O)C[C@H](OC(=O)C(O)C(NC(=O)c4ccccc4)c4ccccc4)C(C)=C1C3(C)C)C1(OC(C)=O)COC1C[C@@H]2OC(=O)CN(C)C (stereo partly drawn) (tested in a mixture with another compound)
- T/C (dose: 4.13 mg/kg/injection, schedule: Q01DX009 (ip), vehicle: water): 34 % of control
- T/C (dose: 8.25 mg/kg/injection, schedule: Q01DX009 (ip), vehicle: water): 23 % of control
- T/C (dose: 16.5 mg/kg/injection, schedule: Q01DX009 (ip), vehicle: water): -93 % of control
- T/C (dose: 33.0 mg/kg/injection, schedule: Q01DX009 (ip), vehicle: water): -100 % of control

SMILES: C#CCNC1=C(C)C(=O)C2=C(C1=O)[C@H](COC(N)=O)[C@]1(OC)[C@@H]3N[C@@H]3CN21
- T/C (dose: 1.85 mg/kg/injection, schedule: Q04DX003 (ip), vehicle: distilled water + Tween-80): 48 % of control
- T/C (dose: 1.88 mg/kg/injection, schedule: Q04DX003 (ip), vehicle: distilled water + Tween-80): 97 % of control
- T/C (dose: 3.75 mg/kg/injection, schedule: Q04DX003 (ip), vehicle: distilled water + Tween-80): 49 % of control and 55 % of control

SMILES: CN1C2C=CC(=O)C1C1C(=O)N(c3ccccc3)C(=O)C12 (stereo not drawn)
- T/C (dose: 100.0 mg/kg/injection, schedule: Q04DX003 (ip), vehicle: Klucel (hydroxypropylcellulose) (HPC)): 105 % of control
- T/C (dose: 200.0 mg/kg/injection, schedule: Q04DX003 (ip), vehicle: Klucel (hydroxypropylcellulose) (HPC)): 77 % of control
